# In article PMC5531531, “A synthetic cationic antimicrobial peptide inhibits inflammatory response and the NLRP3 inflammasome by neutralizing LPS and ATP” (PLoS ONE, 2017):
# No end group written: not given here.
# Test system: LPS-induced NO generation in RAW264.7 cells
# Assay: NO inhibitory assay (Griess reaction), LPS-activated RAW 264.7
# Type: cell-based, mouse
# Settings: E. coli LPS 0.1 μg/ml, 24 h, Griess reaction; mean of triplicate wells from at least three experiments
# Protocol: RAW 264.7 cells (2 × 10^5 in 0.5 ml of medium) were seeded in 24-well plates and then incubated with or without LPS (0.1 μg/ml) in the absence or presence of AMP for 24 h. The effects of AMP on NO production were measured indirectly by analyzing nitrite levels using the Griess reaction as described in detail previously.
row,Sequence,"ED50, effective dose of AMPs that inhibits 50% of LPS-induced NO generation in RAW264.7 cells [µM]"
1,GAKALTKAATAFTKFYKTIW [GW-A4],4
2,GAKYAKYIYNFYKYIAKYIW [GW-A1],>8
3,GANAAKKFATIAKKFINYLW [GW-Q4],>8
4,GANAAKKLATFAKKIFTAYW [GW-M1],4
5,GANLAKKFYTYINKFINYAW [GW-Q3],7
6,GATYAKKIIKTITKIATTAW [GW-A5],>8
7,"GIGKFLHSAKKWGKAFVGEIMNS [Peptide M2a, Magainin 2a, reference compound]",>8
8,GIKIAKKAITIAKKIAKIYW [GW-Q6],4
9,GLTFLKKILNFAKKIYTAIW [GW-H3],4
10,"GWGSFFKKAAHVGKHVGKAALTHYL [Ple, Pleurocidin, reference compound]",>8
11,GYKYYNKIYNYLNKYLKYAW [GW-H0],5
12,GYNYAKKLANLAKKFANALW [GW-H1],>8
